From patent US9050345B2, “Pyrrolotriazines as potassium ion channel inhibitors” (BRISTOL-MYERS SQUIBB COMPANY, priority 2013, dated 2015)

Biological target: T1, human KV 1.5 (IKur) (Homo sapiens, UniProt P22460)
T1 construct: expressed in transfected cells
Assay: block of IKur current in patch clamped L-929 cells expressing human Kv1.5
Assay type: cell-based
Details: patch clamped mammalian L-929 cells stably expressing human Kv1.5; for inhibition at 0.3 µM: L929, 0.3 μM, read-out: KV1_5% Inh L929 @0.3 μM

T1 sequence (P22460 whole entry): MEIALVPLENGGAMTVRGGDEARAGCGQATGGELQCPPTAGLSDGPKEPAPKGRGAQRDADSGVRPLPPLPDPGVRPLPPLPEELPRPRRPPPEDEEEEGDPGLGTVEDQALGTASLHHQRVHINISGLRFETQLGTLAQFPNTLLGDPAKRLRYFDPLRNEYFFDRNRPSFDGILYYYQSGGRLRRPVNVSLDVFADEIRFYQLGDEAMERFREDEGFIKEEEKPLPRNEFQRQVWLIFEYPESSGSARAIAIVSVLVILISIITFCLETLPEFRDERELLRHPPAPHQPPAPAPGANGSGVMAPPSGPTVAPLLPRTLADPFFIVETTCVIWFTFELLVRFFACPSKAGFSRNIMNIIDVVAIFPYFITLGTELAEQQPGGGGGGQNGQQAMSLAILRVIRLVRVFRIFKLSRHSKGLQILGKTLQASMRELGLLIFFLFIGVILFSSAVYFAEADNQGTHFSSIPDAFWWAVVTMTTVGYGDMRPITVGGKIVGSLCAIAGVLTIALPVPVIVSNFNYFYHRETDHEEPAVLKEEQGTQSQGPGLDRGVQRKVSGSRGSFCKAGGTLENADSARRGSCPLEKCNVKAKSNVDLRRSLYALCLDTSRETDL

| inhibition at 0.3 µM [%] | KV1_5% Inh L929 @0.3 μM (0.3 μM) [%] | Compound |
| --- | --- | --- |
| 94.1 | – | CS(=O)(=O)Nc1cncc(-c2nc(NCc3ccccn3)c3c(-c4ccccc4)ccn3n2)c1 [Example 3, N-(5-(5-Phenyl-4-(pyridin-2-ylmethylamino)pyrrolo[1,2-f][1,2,4]triazin-2-yl)pyridin-3-yl)methanesulfonamide] |
| 95.5 | – | CC(C)OC(=O)Nc1cncc(-c2nc(NCc3ccccn3)c3c(-c4ccccc4)ccn3n2)c1 [Example 72, isopropyl 5-(5-phenyl-4-(pyridin-2-ylmethylamino)pyrrolo[1,2-f][1,2,4]triazin-2-yl)pyridin-3-ylcarbamate] |
| 79.9 | – | NS(=O)(=O)c1cnc(O)c(-c2nc(NCc3ccccn3)c3c(-c4ccccc4)ccn3n2)c1 [Example 153, 6-hydroxy-5-(5-phenyl-4-((pyridin-2-ylmethyl)amino)pyrrolo [2,1-f][1,2,4]triazin-2-yl)pyridine-3-sulfonamide] |
| 92 | – | NS(=O)(=O)c1cncc(-c2nc(NCc3cccnc3)c3c(-c4ccccc4)ccn3n2)c1 [Example 158, 5-(5-phenyl-4-(pyridin-3-ylmethylamino)pyrrolo [1,2-f][1,2,4]triazin-2-yl)pyridine-3-sulfonamide] |
| 94.8 | – | CC(=O)Nc1cncc(-c2nc(NCc3ccccn3)c3c(-c4ccccc4)ccn3n2)c1 [Example 47, N-(5-(5-phenyl-4-(pyridin-2-ylmethylamino)pyrrolo[1,2-f][1,2,4]triazin-2-yl)pyridin-3-yl)acetamide] |
| 80.9 | – | N#Cc1ccccc1-c1ccn2nc(-c3cncc(S(N)(=O)=O)c3)nc(NCc3ccccn3)c12 [Example 184, 5-(5-(2-cyanophenyl)-4-((pyridin-2-ylmethyl)amino)pyrrolo [2,1-f][1,2,4]triazin-2-yl)pyridine-3-sulfonamide] |
| 89.3 | – | COc1ccc(-c2ccn3nc(-c4cncc(S(N)(=O)=O)c4)nc(NCc4ccccn4)c23)cc1 [Example 105, 5-(5-(4-methoxyphenyl)-4-(pyridin-2-ylmethylamino)pyrrolo[1,2-f][1,2,4]triazin-2-yl)pyridine-3-sulfonamide] |
| 98.6 | – | CS(=O)(=O)NC1(c2nc(NCc3ccccn3)c3c(-c4ccccc4)ccn3n2)CC1 [Example 37, N-(1-(5-Phenyl-4-(pyridin-2-ylmethylamino)pyrrolo[1,2-f][1,2,4]triazin-2-yl)cyclopropyl)methanesulfonamide] |

More lines, now with the values behind:

| Compound | inhibition at 0.3 µM [%] | KV1_5% Inh L929 @0.3 μM (0.3 μM) [%] |
| --- | --- | --- |
| CS(=O)(=O)Nc1cncc(-c2nc(NCc3ccccc3)c3c(-c4ccccc4)ccn3n2)c1 [Example 74, N-(5-(4-(benzylamino)-5-phenylpyrrolo [1,2-f][1,2,4]triazin-2-yl)pyridin-3-yl) methanesulfonamide] | 96.7 | – |
| N#C[C@@H]1C[C@H]1c1nc(NCc2ccccn2)c2c(-c3ccccc3)ccn2n1 (racemic) [Example 43, (±)-2-(5-Phenyl-4-(pyridin-2-ylmethylamino)pyrrolo[1,2-f][1,2,4]triazin-2-yl)cyclopropanecarbonitrile] | 98.6 | – |
| NS(=O)(=O)c1cncc(-c2nc(NCC3CCCCO3)c3c(-c4ccccc4)ccn3n2)c1 (stereo not shown) [Example 102, 5-(5-phenyl-4-((tetrahydro-2H-pyran-2-yl)methylamino)pyrrolo[1,2-f][1,2,4]triazin-2-yl)pyridine-3-sulfonamide] | – | 98.89 |
| CCOC(=O)CC(=O)Nc1cncc(-c2nc(NCc3cnccn3)c3c(-c4ccccc4)ccn3n2)c1 [Example 177, ethyl 3-oxo-3-((5-(5-phenyl-4-((pyrazin-2-ylmethyl)amino)pyrrolo [2,1-f][1,2,4]triazin-2-yl)pyridin-3-yl)amino) propanoate] | 96.7 | – |
| NC(=O)c1ccc(-c2nc(NCc3ccccc3)c3c(-c4ccccc4)ccn3n2)cn1 [Example 81, 5-(4-(benzylamino)-5-phenylpyrrolo [1,2-f][1,2,4]triazin-2-yl) picolinamide] | 97 | – |
